“And” between values parts separate entries of the source, which are not always exact repeats. Equal values may be shown once.
Key:
[1] = Bubbling tests: alcohol concentration in gas phase over alcohol-water solution, measured by low resolution FT-IR; type: physicochemical; settings: for Concentration of ethanol in gas phase / Concentration of methanol in gas phase: 21.0 ± 1.0° C., 1 atm, mean ± SD of 10 spectra
[2] = as above; type: physicochemical; settings: for Concentration of methanol in gas phase: 21.0 ± 1.0° C., 1 atm, mean ± SD of 10 spectra
Protocol: Vaporous ethanol and methanol mixtures in water were made by bubbling nitrogen gas through a corresponding liquid mixture. The purpose of measuring mixtures of ethanol and methanol was to test the applicability of the instrument for determining more than one alcohol in a gas mixture containing a large amount of water vapor like human exhaled breath. Particularly, the measurements were performed with a large ethanol:methanol ratio in order to investigate whether the instrument is able to determine a low concentration of methanol in the presence of a large amount of ethanol.

[3] = 25° C., 1 atm; Hine and Mookerjee 1975, Davidovits et al. 1995; cited from earlier work

Structure (SMILES): CCO [ethanol]
- Concentration of ethanol in gas phase ([1]; 3.17 W-% ethanol in water with methanol in liquid 0.102 w-%): 295 ± 2 ppm
- Concentration of ethanol in gas phase ([1]; 3.17 W-% ethanol in water with methanol in liquid 0.159 w-%): 314 ± 4 ppm
- Concentration of ethanol in gas phase ([1]; 3.17 W-% ethanol in water with methanol in liquid 0.222 w-%): 298 ± 3 ppm
- Concentration of ethanol in gas phase ([1]; 3.17 W-% ethanol in water with methanol in liquid 0.317 w-%): 304 ± 2 ppm
- Concentration of ethanol in gas phase ([1]; 3.17 W-% ethanol in water with methanol in liquid 0.95 w-%): 296 ± 4 ppm
- Concentration of ethanol in gas phase ([1]; 3.17 W-% ethanol in water with methanol in liquid 1.59 w-%): 303 ± 5 ppm
- Concentration of ethanol in gas phase ([1]; 3.17 W-% ethanol in water with methanol in liquid 3.18 w-%): 300 ± 2 ppm
- Concentration of ethanol in gas phase ([1]; 3.17 W-% ethanol in water with methanol in liquid 6.36 w-%): 293 ± 3 ppm
- Concentration of ethanol in gas phase ([1]; 3.17 W-% ethanol in water with methanol in liquid 15.9 w-%): 289 ± 1 ppm
- ethanol in the gas phase (FIG. 1 spectrum) ([1]; 3.17 w-‰ ethanol and 0.159 w-‰ methanol in liquid phase (water), 21±1° C.): 310 ppm
- Concentration of ethanol in gas phase ([1]; ethanol in liquid 0.202 w-%, water): 19.2 ± 0.1 ppm
- Concentration of ethanol in gas phase ([1]; ethanol in liquid 0.5 w-%, water): 45.7 ± 0.3 ppm
- Concentration of ethanol in gas phase ([1]; ethanol in liquid 1 w-%, water): 94 ± 1 ppm
- Concentration of ethanol in gas phase ([1]; ethanol in liquid 1.58 w-%, water): 148 ± 2 ppm
- Concentration of ethanol in gas phase ([1]; ethanol in liquid 3.16 w-%, water): 305 ± 4 ppm
- Concentration of ethanol in gas phase ([1]; ethanol in liquid 6.33 w-%, water): 587 ± 4 ppm
- Concentration of ethanol in gas phase ([1]; ethanol in liquid 9.49 w-%, water): 907 ± 6 ppm
- Concentration of ethanol in gas phase ([1]; ethanol in liquid 15.8 w-%, water): 1466 ± 11 ppm
- Concentration of ethanol in gas phase ([1]; ethanol in liquid 31.6 w-%, water): 2907 ± 4 ppm

Structure (SMILES): CO [methanol]
- Concentration of methanol in gas phase ([1]; methanol in liquid 0.101 w-%, water): 13 ± 0.2 ppm
- Concentration of methanol in gas phase ([1]; methanol in liquid 0.102 w-% in mixture of water and 3.17 W-% ethanol): 14.2 ± 0.4 ppm
- Concentration of methanol in gas phase ([1]; methanol in liquid 0.159 w-% in mixture of water and 3.17 W-% ethanol): 22.2 ± 0.4 ppm
- Concentration of methanol in gas phase ([1]; methanol in liquid 0.203 w-%, water): 26.9 ± 0.1 ppm
- Concentration of methanol in gas phase ([1]; methanol in liquid 0.301 w-%, water): 41.6 ± 0.3 ppm
- Concentration of methanol in gas phase ([1]; methanol in liquid 0.317 w-% in mixture of water and 3.17 W-% ethanol): 43.4 ± 0.4 ppm
- Concentration of methanol in gas phase ([1]; methanol in liquid 0.501 w-%, water): 61 ± 1 ppm
- Concentration of methanol in gas phase ([1]; methanol in liquid 1.59 w-%, water): 204 ± 2 ppm
- Concentration of methanol in gas phase ([1]; methanol in liquid 3.17 w-%, water): 402 ± 2 ppm
- Concentration of methanol in gas phase ([1]; methanol in liquid 6.34 w-%, water): 805 ± 4 ppm
- Concentration of methanol in gas phase ([1]; methanol in liquid 9.51 w-%, water): 1207 ± 5 ppm
- Concentration of methanol in gas phase ([1]; methanol in liquid 15.9 w-% in mixture of water and 3.17 W-% ethanol): 2006 ± 3 ppm
- Concentration of methanol in gas phase ([1]; methanol in liquid 15.9 w-%, water): 2031 ± 14 ppm
- Concentration of methanol in gas phase ([1]; methanol in liquid 31.7 w-%, water): 4067 ± 28 ppm
- methanol in the gas phase (FIG. 1 spectrum) ([2]; 0.159 w-‰ methanol and 3.17 w-‰ ethanol in liquid phase (water), 21±1° C.): 22.4 ppm
- Concentration of methanol in gas phase ([2]; methanol in liquid 0.222 w-% in mixture of water and 3.17 W-% ethanol): 30.2 ± 0.5 ppm
- Concentration of methanol in gas phase ([2]; methanol in liquid 0.95 w-% in mixture of water and 3.17 W-% ethanol): 120 ± 2 ppm
- Concentration of methanol in gas phase ([2]; methanol in liquid 1.59 w-% in mixture of water and 3.17 W-% ethanol): 201 ± 3 ppm
- Concentration of methanol in gas phase ([2]; methanol in liquid 3.18 w-% in mixture of water and 3.17 W-% ethanol): 402 ± 2 ppm
- Concentration of methanol in gas phase ([2]; methanol in liquid 6.36 w-% in mixture of water and 3.17 W-% ethanol): 806 ± 7 ppm
- water-air partition coefficient (literature Henry's law constants) [3]: 5260 and 5334

Reference: US6555821B1, “Method for analysis of expired gas” (priority 1999, dated 2003)
